Assay results taken from patent publication US20100210602A1, “PhoU (PerF), A P[…] INVOLVED IN [sequence] FORMATION AND TOLERANCE TO MULTIPLE ANTIBIOTICS AND [sequence] AS A DRUG TARGET FOR [sequence] BACTERIA” (priority 2006, published 2010).
Converted amounts (≈) assume the structure as drawn. Read-outs that look alike come from different tables or passages of the source.

Key:
W3110 [1] = system: W3110
JHU-313 = assay: Kirby-Bauer paper disc assay, zone inhibition
JHU-313 containing pPhoU [2] = assay: Kirby-Bauer paper disc assay, zone inhibition
[3] = system: JHU-313 containing pVector; assay: Kirby-Bauer paper disc assay, zone inhibition
wild type strain W3110 [4] = assay: microbe, parasite or virus in culture; format: cell-based, E. coli; settings: Escherichia coli, W3110, LB broth, 16 h at 37° C.
PhoU mutant (JHU-313) [5] = assay: MIC/MBC by serial two-fold dilutions in LB broth; format: cell-based, E. coli; settings: Escherichia coli, 16 h at 37° C.
JHU-313 containing pPhoU [6] = assay: MIC/MBC by serial two-fold dilutions in LB broth; format: cell-based, E. coli; settings: Escherichia coli, 16 h at 37° C.
[7] = system: JHU-313 containing pVector; assay: MIC/MBC by serial two-fold dilutions in LB broth; format: cell-based, E. coli; settings: Escherichia coli, 16 h at 37° C.
wild type strain W3110 [8] = format: cell-based, E. coli; settings: 20 h after 1.5 h ampicillin pre-exposure; ampicillin 100, gentamicin 20, trimethoprim 16, norfloxacin 5 μg/ml
PhoU mutant (JHU-313) [9] = assay: Sequential antibiotic exposure of ampicillin persisters (CFU); format: cell-based, E. coli; settings: 20 h after 1.5 h ampicillin pre-exposure; ampicillin 100, gentamicin 20, trimethoprim 16, norfloxacin 5 μg/ml
wild type strain W3110 [10] = format: cell-based
[11] = system: PhoU transposon mutant (JHU-313); format: cell-based
[12] = system: PhoU deletion mutant (ΔphoU); format: cell-based
W3110 [13] = assay: microbe, parasite or virus in culture; settings: Escherichia coli, read-out: zone inhibition
[14] = log phase, 1 week, Ap100, Norf3
[15] = log phase, 5 hr, ampicillin 100 μg/ml (Ap100), norfloxacin 3 μg/ml (Norf3)
[16] = log phase, 3 days, Ap100, Norf3
[17] = log phase, 5 days, Ap100, Norf3
[18] = log phase, 10 days, Ap100, Norf3
[19] = log phase, ampicillin 100 μg/ml, norfloxacin 3 μg/ml
[20] = stationary phase, 3 μg/ml, 120 hr exposure
[21] = stationary phase, 1 week, Ap100, Norf3
[22] = stationary phase, 5 hr, ampicillin 100 μg/ml (Ap100), norfloxacin 3 μg/ml (Norf3)
[23] = stationary phase, 1 day, Ap100, Norf3
[24] = stationary phase, 3 days, Ap100, Norf3
[25] = stationary phase, 5 days, Ap100, Norf3
[26] = stationary phase, 10 days, Ap100, Norf3
[27] = stationary phase, norfloxacin 3 μg/ml
[28] = Escherichia coli, read-out: zone inhibition

Compound: OO [Hydrogen peroxide, hydrogen peroxide]
- zone inhibition (W3110 [1]): 30 mm
- zone inhibition (JHU-313; peroxide (30%)): 37 mm
- zone inhibition (JHU-313 containing pPhoU [2]; peroxide (30%)): 39 mm
- zone inhibition ([3]; peroxide (30%)): 46 mm

Compound: CCn1cc(C(=O)O)c(=O)c2cc(F)c(N3CCNCC3)cc21 [Norfloxacin, norfloxacin]
- MBC (wild type strain W3110 [4]; read-out: MBC): 1 µg/mL (≈ 3.13 µM)
- MIC (wild type strain W3110 [4]; read-out: MIC): 0.5 µg/mL (≈ 1.57 µM)
- MBC (PhoU mutant (JHU-313) [5]; read-out: MBC): 0.5 µg/mL (≈ 1.57 µM)
- MIC (PhoU mutant (JHU-313) [5]; read-out: MIC): 0.125 µg/mL (≈ 0.391 µM)
- MBC (JHU-313 containing pPhoU [6]; read-out: MBC): 1 µg/mL (≈ 3.13 µM)
- MIC (JHU-313 containing pPhoU [6]; read-out: MIC): 0.5 µg/mL (≈ 1.57 µM)
- MBC ([7]; read-out: MBC): 0.5 µg/mL (≈ 1.57 µM)
- MIC ([7]; read-out: MIC): 0.125 µg/mL (≈ 0.391 µM)
- CFU after second antibiotic exposure (wild type strain W3110 [8]): 7 × 10^5 CFU/ml
- CFU after second antibiotic exposure (PhoU mutant (JHU-313) [9]): 0 CFU/ml
- CFU (wild type strain W3110 [10]; [14]): 0 CFU
- CFU (wild type strain W3110 [10]; [15]): 1 × 10^8 CFU
- CFU (wild type strain W3110 [10]; log phase, 1 day, Ap100, Norf3): 4 × 10^6 CFU
- CFU (wild type strain W3110 [10]; [16]): 5 × 10^4 CFU
- CFU (wild type strain W3110 [10]; [17]): 7 × 10^2 CFU
- CFU (wild type strain W3110 [10]; [18]): 0 CFU
- time to killing of all cells (wild type strain W3110 [10]; [19]): 5 days
- viable bacteria left (wild type strain W3110 [10]; [20]): about 10^7 CFU/ml
- CFU (wild type strain W3110 [10]; [21]): 1.5 × 10^4 CFU
- CFU (wild type strain W3110 [10]; [22]): 5 × 10^9 CFU
- CFU (wild type strain W3110 [10]; [23]): 4 × 10^9 CFU
- CFU (wild type strain W3110 [10]; [24]): 1 × 10^8 CFU
- CFU (wild type strain W3110 [10]; [25]): 4 × 10^6 CFU
- CFU (wild type strain W3110 [10]; [26]): 2 × 10^2 CFU
- CFU [11, 14]: 0 CFU
- CFU [11, 15]: 2 × 10^7 CFU
- CFU ([11]; log phase, 1 day, Ap100, Norf3): 4 × 10^5 CFU
- CFU [11, 16]: 0 CFU
- CFU [11, 17]: 0 CFU
- CFU [11, 18]: 0 CFU
- time to killing of all cells [11, 19]: 1 days
- viable bacteria left [11, 20]: no viable bacteria were left
- CFU [11, 21]: 0 CFU
- CFU [11, 22]: 3 × 10^8 CFU
- CFU [11, 23]: 4.5 × 10^7 CFU
- CFU [11, 24]: 2 × 10^5 CFU
- CFU [11, 25]: 0 CFU
- CFU [11, 26]: 0 CFU
- time to complete killing [11, 27]: ≤ 5 days
- CFU [12, 14]: 0 CFU
- CFU [12, 15]: 5 × 10^7 CFU
- CFU ([12]; log phase, 1 day, Ap100, Norf3): 1 × 10^6 CFU
- CFU [12, 16]: 0 CFU
- CFU [12, 17]: 0 CFU
- CFU [12, 18]: 0 CFU
- time to killing of all cells [12, 19]: 1 days
- CFU [12, 21]: 0 CFU
- CFU [12, 22]: 6 × 10^8 CFU
- CFU [12, 23]: 2 × 10^8 CFU
- CFU [12, 24]: 3 × 10^5 CFU
- CFU [12, 25]: 0 CFU
- CFU [12, 26]: 0 CFU
- time to complete killing [12, 27]: ≤ 5 days
- zone of inhibition at 0.1 µg/mL (W3110 [13]): 24 mm
- zone of inhibition at 0.5 µg/mL (W3110 [13]): 27 mm
- zone of inhibition at 2 µg/mL (W3110 [13]): 30 mm
- zone of inhibition at 4 µg/mL (W3110 [13]): 32 mm
- zone of inhibition at 0.1 µg/mL (JHU-313; [28]): 28 mm
- zone of inhibition at 0.5 µg/mL (JHU-313; [28]): 30 mm
- zone of inhibition at 2 µg/mL (JHU-313; [28]): 34 mm
- zone of inhibition at 4 µg/mL (JHU-313; [28]): 37 mm
- zone of inhibition at 0.1 µg/mL (JHU-313 containing pPhoU [2]; [28]): 27 mm
- zone of inhibition at 0.5 µg/mL (JHU-313 containing pPhoU [2]; [28]): 31 mm
- zone of inhibition at 2 µg/mL (JHU-313 containing pPhoU [2]; [28]): 35 mm
- zone of inhibition at 4 µg/mL (JHU-313 containing pPhoU [2]; [28]): 36 mm
- zone of inhibition at 0.1 µg/mL [3, 28]: 29 mm
- zone of inhibition at 0.5 µg/mL [3, 28]: 35 mm
- zone of inhibition at 2 µg/mL [3, 28]: 40 mm
- zone of inhibition at 4 µg/mL [3, 28]: 44 mm

Compound: CN(C)[C@@H]1C(O)=C(C(N)=O)C(=O)[C@@]2(O)C(O)=C3C(=O)c4c(O)cccc4[C@@](C)(O)[C@H]3C[C@@H]12 [Tetracycline]
- zone of inhibition at 12.5 µg/mL (W3110 [13]): 22 mm
- zone of inhibition at 25 µg/mL (W3110 [13]): 23 mm
- zone of inhibition at 50 µg/mL (W3110 [13]): 23 mm
- zone of inhibition at 12.5 µg/mL (JHU-313; [28]): 26 mm
- zone of inhibition at 25 µg/mL (JHU-313; [28]): 32 mm
- zone of inhibition at 50 µg/mL (JHU-313; [28]): 32 mm
- zone of inhibition at 12.5 µg/mL (JHU-313 containing pPhoU [2]; [28]): 30 mm
- zone of inhibition at 25 µg/mL (JHU-313 containing pPhoU [2]; [28]): 32 mm
- zone of inhibition at 50 µg/mL (JHU-313 containing pPhoU [2]; [28]): 32 mm
- zone of inhibition at 12.5 µg/mL [3, 28]: 34 mm
- zone of inhibition at 25 µg/mL [3, 28]: 34 mm
- zone of inhibition at 50 µg/mL [3, 28]: 34 mm
